Data: article PMC5626944 (Frontiers in Pharmacology, 2017)
Read-outs that look alike come from different tables or passages of the source.

Columns and labels:
Serotonin, 5HT1D = assay: NovaScreen competition binding; conditions: 1 µM
α3β4* nAChRs = biological target: T1, α3β4* nAChRs (Mus musculus, UniProt Q8R493+Q8R4G9); assay: [3H]ACh release from interpeduncular nucleus synaptosomes; format: biochemical; conditions: IPN synaptosomes
T1 construct: from tissue
Experimental: Regions of interest were dissected from fresh mouse brains and homogenized in ice-cold isotonic sucrose (0.32 M), buffered with HEPES (5 mM, pH 7.5). The suspension was centrifuged at 12,000 × g for 20 min. The pellet was re-suspended in the appropriate uptake buffer ([Grady et al., 2001]; [Salminen et al., 2004]; [Marks et al., 2006]) and used immediately.
Previously published methods for [^3H]ACh release from crude IPN synaptosomes were followed ([Grady et al., 2001]). Agonist-stimulated ^86Rb^+ efflux from synaptosomes was measured using previously described methods ([Marks et al., 1999], [2007]).

Adrenergic, Alpha 1A = test system: T2, Adrenergic, Alpha 1A; assay: NovaScreen competition binding; conditions: 1 µM
T2 construct: PerkinElmer – Caliper Life Sciences (NovaScreen service)

α4-GFPβ2DM nAChRs = biological target: T3, α4-GFPβ2DM nAChRs (Mus musculus, UniProt O70174+Q9ERK7, L349M/R365A/R366A/R368A); assay: Whole-cell patch-clamp recordings in transfected neuro-2a cells; format: cell-based; conditions: α4β2 single component, transfected in Neuro-2a cells
T3 construct: expressed in transfected cells; host or cells: mouse neuroblastoma neuro-2a (ATCC CCL-131)
T3 sequence (O70174 31-629): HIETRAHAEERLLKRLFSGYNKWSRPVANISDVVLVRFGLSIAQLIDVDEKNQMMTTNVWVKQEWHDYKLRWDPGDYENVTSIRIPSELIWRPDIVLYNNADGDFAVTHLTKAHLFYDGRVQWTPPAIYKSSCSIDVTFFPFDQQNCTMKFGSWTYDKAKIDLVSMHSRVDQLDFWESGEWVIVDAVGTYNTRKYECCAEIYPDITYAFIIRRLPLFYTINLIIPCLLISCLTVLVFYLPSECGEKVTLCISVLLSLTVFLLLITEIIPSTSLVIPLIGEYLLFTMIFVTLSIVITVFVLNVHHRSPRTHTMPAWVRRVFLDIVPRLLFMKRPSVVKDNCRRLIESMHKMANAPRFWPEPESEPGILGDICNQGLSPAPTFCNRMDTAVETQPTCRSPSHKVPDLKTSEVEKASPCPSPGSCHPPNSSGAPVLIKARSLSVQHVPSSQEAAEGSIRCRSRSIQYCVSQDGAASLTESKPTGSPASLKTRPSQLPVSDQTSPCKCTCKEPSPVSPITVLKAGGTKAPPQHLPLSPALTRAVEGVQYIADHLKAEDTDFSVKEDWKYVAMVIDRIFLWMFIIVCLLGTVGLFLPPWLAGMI
T3 sequence (Q9ERK7 26-501 L349M/R365A/R366A/R368A): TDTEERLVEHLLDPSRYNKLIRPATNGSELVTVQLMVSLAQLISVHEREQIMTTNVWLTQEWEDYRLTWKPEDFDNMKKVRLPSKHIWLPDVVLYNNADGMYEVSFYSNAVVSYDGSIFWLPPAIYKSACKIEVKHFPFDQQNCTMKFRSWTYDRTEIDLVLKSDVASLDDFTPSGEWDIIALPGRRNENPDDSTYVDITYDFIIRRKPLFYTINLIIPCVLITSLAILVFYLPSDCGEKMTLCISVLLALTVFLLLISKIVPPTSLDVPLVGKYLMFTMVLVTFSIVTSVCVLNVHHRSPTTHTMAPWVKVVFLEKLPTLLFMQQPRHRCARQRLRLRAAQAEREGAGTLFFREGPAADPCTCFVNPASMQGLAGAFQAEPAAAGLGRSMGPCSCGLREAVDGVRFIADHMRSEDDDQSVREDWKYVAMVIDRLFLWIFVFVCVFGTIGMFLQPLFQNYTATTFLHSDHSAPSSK
Experimental: Cells were transfected with 500 ng of: α4-GFP and β2DM or α6-GFP, β2DM, and β3 nAChR subunits.
For the patch-clamp experiments, we used mouse neuro-2a cells. […] Transfected cells displaying eGFP fluorescence were identified for patching using an inverted epifluorescence microscope. […] The resistance of the patch pipettes was 2–4 MΩ. The extracellular solution contained (in mM): 140 NaCl, 5 KCl, 2 CaCl2, 1 MgCl2, 10 HEPES, and 10 glucose (320 mOsm, pH set to 7.3 with Tris-base). […] The data were sampled at 10 kHz and low-pass filtered at 2 kHz prior to digitization. All experiments were performed at 24°C and the recording chamber was continually perfused with extracellular solution. To avoid receptor desensitization by repetitive agonist application, agonists were applied at intervals ≥3 min. An Octaflow II superfusion system (ALA Scientific Instruments) was used to apply the agonist for concentration-response studies. Applications were 500 ms at 6 psi. […] Following the collection of the full concentration range an additional test pulse was repeated to assess accumulated desensitization.
Data were fit to a single Hill term using Origin 10 software. Data are expressed as mean ± SEM.

male Wistar rats = assay: Rat intravenous nicotine self-administration; format: in vivo; conditions: 0.01, 0.025, 0.05, 0.08 mg/kg ip, 20 min before session; nicotine 0.03 mg/kg/inf
Source text: Operant chambers (Med Associates, East Fairfield, VT, United States) were used for food delivery and the intravenous self-administration (IVSA) of nicotine.
For IV catheter implantation, the rats were anesthetized using 1–3% isoflurane inhalation in oxygen and surgically prepared with catheters in the left jugular vein ([Kenny et al., 2008]). The catheter was passed subcutaneously to a polyethylene assembly mounted on the animals’ back. Prior to training, rats were food-restricted so that their body weight was approximately ∼85% that of free-feeding rats. They were then trained to press an active lever for 45 mg food pellets on a fixed ratio 5 time-out 20 s (FR5TO20) schedule of reinforcement. […] Pressing this lever was recorded but was not associated with scheduled consequence. Rats were permitted to respond for food rewards until a reliable response was achieved, defined as >90 pellets earned per 1 h session for three consecutive sessions. Rats were then permitted to respond for food (n = 8) or for nicotine infusions (n = 9) during 1 h daily sessions under the FR5TO20 schedule. […]
Twenty min after injection, rats were placed in the operant boxes and responding for food rewards or nicotine infusions was recorded. […]

[1] = test system: hERG potassium channel (IKr); assay: NovaScreen competition binding; parameters: species or system human; conditions: human, probe [3H]Astemizole, [3H]Astemizole
[2] = test system: Potassium Channel, I[Kr] (hERG) (h); assay: NovaScreen competition binding; parameters: species or system human; conditions: 1 µM
Adrenergic, Alpha 2A (h) = test system: T4, Adrenergic, Alpha 2A (h); assay: NovaScreen competition binding; parameters: species or system human; conditions: 1 µM
T4 construct: PerkinElmer – Caliper Life Sciences (NovaScreen service)

[3] = 0.2 mg/kg ip; for [TC299423] in assay: brain; for Blood measurements: [TC299423]: serum
Experimental: Uninjected mice served as controls (n = 3 for each group). Trunk blood was collected into heparinized 1.5 mL polyethylene tubes. The tubes were centrifuged and the serum was collected. […] The cerebral cortex was dissected, placed in 1 mL of cold water, homogenized, and diluted to 3 mL with cold water. Epibatidine saturation curves were constructed for the cortical samples using eight concentrations of [^125I]epibatidine measured in triplicate (6, 12, 25, 50, 100, 200, 400, and 800 pM). The final assay volume was […] 50 μL of homogenate was added to each sample. Blanks included 100 μM nicotine. Samples were incubated at room temperature overnight. The samples were filtered, washed and counted. Inhibition of [^125I]epibatidine (325 pM) binding was measured by adding 1, 2, 5, 10, or 20 μL of serum to samples. The washed, particulate fraction from C57BL/6 cortex was the source of the binding sites.

α6β2* nAChRs = α6β2* nAChRs (Mus musculus, UniProt Q9ERK7+Q9R0W9); assay: [125I]epibatidine binding, striatal membranes from α4KO mice; parameters: from tissue; host or cells: striatal membranes from α4KO mice
α6β2* nAChRs, sequence (Q9ERK7 26-501): as the sequence (Q9ERK7 26-501 L349M/R365A/R366A/R368A) above, with M324L, A340R, A341R, A343R counted along it
α6β2* nAChRs, sequence (Q9R0W9 31-494): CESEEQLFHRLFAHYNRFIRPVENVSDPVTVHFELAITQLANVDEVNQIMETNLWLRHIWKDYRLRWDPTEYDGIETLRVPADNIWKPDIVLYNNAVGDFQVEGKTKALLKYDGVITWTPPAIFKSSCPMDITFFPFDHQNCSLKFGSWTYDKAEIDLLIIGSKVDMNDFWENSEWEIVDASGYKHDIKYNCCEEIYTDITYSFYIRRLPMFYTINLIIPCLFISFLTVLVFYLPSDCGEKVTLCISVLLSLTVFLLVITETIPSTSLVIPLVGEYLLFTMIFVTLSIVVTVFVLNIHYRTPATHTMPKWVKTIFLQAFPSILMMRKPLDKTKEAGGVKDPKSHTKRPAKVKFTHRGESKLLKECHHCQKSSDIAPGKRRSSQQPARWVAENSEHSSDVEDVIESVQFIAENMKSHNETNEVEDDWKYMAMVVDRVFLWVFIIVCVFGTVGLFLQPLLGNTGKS
Experimental: Brain membrane preparations were stored as pellets under buffer at -70°C or used immediately.

Muscarinic, M1 (hr) = assay: NovaScreen competition binding; parameters: species or system human; conditions: 1 µM

T1 sequence (Q8R4G9 26-499): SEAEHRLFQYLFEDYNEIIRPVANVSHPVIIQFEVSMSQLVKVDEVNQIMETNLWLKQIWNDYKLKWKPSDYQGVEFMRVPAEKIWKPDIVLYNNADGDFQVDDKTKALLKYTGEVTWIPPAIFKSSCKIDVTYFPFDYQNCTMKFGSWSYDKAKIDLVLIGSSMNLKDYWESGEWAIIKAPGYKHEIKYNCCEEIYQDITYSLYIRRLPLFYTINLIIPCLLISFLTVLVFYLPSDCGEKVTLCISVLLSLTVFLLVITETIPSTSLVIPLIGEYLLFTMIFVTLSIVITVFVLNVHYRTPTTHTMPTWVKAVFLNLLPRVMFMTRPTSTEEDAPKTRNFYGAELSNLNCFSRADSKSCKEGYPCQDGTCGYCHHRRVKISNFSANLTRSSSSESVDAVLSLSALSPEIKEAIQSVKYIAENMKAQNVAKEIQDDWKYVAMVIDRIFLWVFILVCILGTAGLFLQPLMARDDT
T1 sequence (Q8R493 21-495): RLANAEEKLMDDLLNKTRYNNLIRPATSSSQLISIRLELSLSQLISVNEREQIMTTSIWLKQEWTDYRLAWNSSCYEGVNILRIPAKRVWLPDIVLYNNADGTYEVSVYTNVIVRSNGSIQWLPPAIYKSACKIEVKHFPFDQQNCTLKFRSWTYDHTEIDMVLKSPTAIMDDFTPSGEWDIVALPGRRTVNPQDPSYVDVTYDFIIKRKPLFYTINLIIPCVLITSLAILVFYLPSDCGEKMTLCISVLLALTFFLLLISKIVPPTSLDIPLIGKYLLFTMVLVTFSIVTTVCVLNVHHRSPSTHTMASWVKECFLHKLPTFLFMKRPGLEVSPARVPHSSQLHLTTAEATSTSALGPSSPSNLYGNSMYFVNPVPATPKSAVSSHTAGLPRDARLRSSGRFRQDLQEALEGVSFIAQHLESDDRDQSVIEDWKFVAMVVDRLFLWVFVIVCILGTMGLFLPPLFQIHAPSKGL

With C1=C(/c2cncnc2)CCCNCC/1 [TC299423, (E)-5-(pyrimidin-5-yl)-1,2,3,4,7,8-hexahydroazocine] as the molecule, how does the Hit (Serotonin, 5HT1D) read?
Its Hit is “FALSE”.

And the Inhibition (Serotonin, 5HT1D; [3H]5-CT)?
The Inhibition was 9.99%.

And the EC50 (α3β4* nAChRs; read-out: Neurotransmitter release EC50 (converted))?
Its EC50 is 8000 nM.

And the Emax (α3β4* nAChRs; relative to nicotine, read-out: Neurotransmitter release % Efficacy)?
Its Emax is 100 ± 16%.

What about the Hit (Adrenergic, Alpha 1A) of the same molecule?
Its Hit is “FALSE”.

And the Inhibition (Adrenergic, Alpha 1A; [3H]-7-MeOxy-Prazosin)?
Its Inhibition is -0.05%.

What about the EC50 (α4-GFPβ2DM nAChRs) of the same molecule?
Its EC50 is 100 ± 20 nM.

What about the “Responding for nicotine infusions vs vehicle” value (male Wistar rats) of the same molecule?
The value was “no statistically significant changes”.

And the inhibition at 1 µM [1]?
Its inhibition at 1 µM is 14.5%.

And the Hit [2]?
The Hit was “FALSE”.

And the Hit (Adrenergic, Alpha 2A (h))?
The Hit was “FALSE”.

And the Inhibition (Adrenergic, Alpha 2A (h); [3H]MK-912)?
Its Inhibition is 6.75%.

What about the “Duration of brain penetration and availability to nAChRs” value [3] of the same molecule?
The value was no less than 20 min.

And the “[TC299423] in brain” value ([3]; 5 min)?
Its value is 45 ± 25 pmol/mg.

And the “[TC299423] in brain” value ([3]; 10 min)?
The value was 88 ± 18 pmol/mg.

And the “[TC299423] in brain” value ([3]; 20 min)?
The value was 73 ± 4.0 pmol/mg.

What about the “[TC299423] in assay” value ([3]; 5 min) of the same molecule?
Its value is 2.2 ± 1.1 nM.

And the “[TC299423] in assay” value ([3]; 10 min)?
Its value is 4.4 ± 0.9 nM.

And the “[TC299423] in assay” value ([3]; 20 min)?
Its value is 3.7 ± 0.2 nM.

And the “Blood measurements: [TC299423]” value ([3]; 5 min)?
The value was 250 ± 50 nM.

And the “Blood measurements: [TC299423]” value ([3]; 10 min)?
The value was 370 ± 70 nM.

What about the “Blood measurements: [TC299423]” value ([3]; 20 min) of the same molecule?
Its value is 120 ± 30 nM.

What about the Ki (α6β2* nAChRs; α4KO striatal membranes) of the same molecule?
Its Ki is 1.4 ± 0.6 nM.

What about the “Difference between Ki ([125I]epibatidine) and EC50 ([3H]dopamine release)” value (α6β2* nAChRs; α6β2* nAChRs) of the same molecule?
The value was roughly 20 fold.

And the Hit (Muscarinic, M1 (hr))?
The Hit was “FALSE”.

And the Inhibition (Muscarinic, M1 (hr); [3H]Scopolamine, N-Methyl)?
Its Inhibition is -11.73%.
